Literature values, collected in patent US9750672B1, “Aloe derived mineral supplement” (AL Global Inc., priority 2013, dated 2017).

Experiments:
[1] = magnesium load 25 mmol; for increment in urinary magnesium during 4 hours post-load: p<0.05; for increment in urinary magnesium during second 2 hours post-load: p less than 0.05

Row | Compound | increment in urinary magnesium during 4 hours post-load [1] | increment in urinary magnesium during second 2 hours post-load [1] | solubility in simulated peak acid secretion (24.2 mEq hydrochloric acid/300 ml) | solubility in water (water)
1 | Magnesium citrate | 0.22 mg/mg creatinine | 0.035 mg/mg creatinine | – | –
2 | [O]=[Mg] [Magnesium oxide] | 0.006 mg/mg creatinine | 0.008 mg/mg creatinine | 43% | virtually insoluble
